# From ChEMBL document CHEMBL1156236, “Trypanoside, anti-tuberculosis, leishmanicidal, and cytotoxic activities of tetrahydrobenzothienopyrimidines” (Bioorg Med Chem, 2010)
# Activity calls are given as the source filed them. The calls are words filed in the database; no cut-off is given here.
# Tests used:
# [1] = system: Mycobacterium tuberculosis; assay: Antitubercular activity against Mycobacterium tuberculosis H37Rv ATCC 27294 after 7 days by microplate alamar blue assay; assay type: functional; settings: H37Rv ATCC 27294, 168 h
# [2] = system: Leishmania peruviana; assay: Antileishmanial activity against Leishmania peruviana MHOM/PE/LCA08 promastigote infected BALB/c mouse macrophages after 48 hrs by Giemsa staining method; assay type: functional, organism-based; settings: MHOM/PE/LCA08, 48 h
# [3] = system: MCF7; assay: Cytotoxicity against human MCF7 cells; assay type: functional
# [4] = system: Leishmania amazonensis; assay: (§1) Antileishmanial activity against Leishmania amazonensis LV79 MPRO/BR/72/M1841 amastigotes infected BALB/c mouse assessed as reduction of parasite burden at 5 mg/kg/day, intralesionally administered after 1 week post infection 3 times per week for 6 weeks measured on week 4 by fluorescence method relative to control; assay type: functional; design: scale not given: the % may be the effect or the level left
# [5] = Cytotoxicity against BALB mouse 3T3 cells; assay type: cell-based; settings: BALB 3T3 cells
# [6] = system: NCI-H460; assay: Cytotoxicity against human NCI-H460 cells; assay type: functional
# [7] = system: Leishmania amazonensis; assay: Antileishmanial activity against Leishmania amazonensis LV79 MPRO/BR/72/M1841 amastigotes infected BALB/c mouse assessed as lesion diameter at 5 mg/kg/day, intralesionally administered after 1 week post infection 3 times per week for 6 weeks measured on week 4 relative to control; assay type: functional
# [8] = system: Vero; assay: (§2) Cytotoxicity against african green monkey Vero cells after 72 hrs by MTS assay; settings: Chlorocebus sabaeus, Vero, 72 h
# [9] = Cytotoxicity against BALB/c mouse macrophages after 48 hrs by trypan blue dye exclusion method; assay type: cell-based; settings: Macrophage
# [10] = system: Leishmania amazonensis; assay: Antileishmanial activity against Leishmania amazonensis Lma CL1 amastigotes infected BALB/c mouse macrophages after 48 hrs by Giemsa staining method; assay type: functional, organism-based; settings: Lma CL1, 48 h
# [11] = Selectivity index, ratio of IC50 for BALB/c mouse macrophages to IC50 for Leishmania amazonensis MHOM/BR/76/LTB-012
# [12] = system: DU-145; assay: Cytotoxicity against human DU145 cells; assay type: functional
# [13] = system: K562; assay: Cytotoxicity against human K562 cells; assay type: functional
# [14] = system: Trypanosoma cruzi; assay: Antitrypanosomal activity against Trypanosoma cruzi tulahuen C4 trypomastigotes infected in african green monkey Vero cells assessed as CPRG cleavage after 120 hrs by microplate reader; assay type: functional, organism-based
# [15] = Selectivity index, ratio of IC50 for african green monkey Vero cells to IC50 for Trypanosoma cruzi tulahuen C4; settings: Vero cells
# [16] = system: Leishmania amazonensis; assay: Antileishmanial activity against Leishmania amazonensis LV79 MPRO/BR/72/M1841 amastigotes infected BALB/c mouse assessed as lesion diameter at 5 mg/kg/day, intralesionally administered after 1 week post infection 3 times per week for 6 weeks measured on week 7 relative to control; assay type: functional
# [17] = system: M14; assay: Cytotoxicity against human M14 cells; assay type: functional
# [18] = system: HT-29; assay: Cytotoxicity against human HT-29 cells; assay type: functional
# [19] = system: Leishmania amazonensis; assay: Antileishmanial activity against Leishmania amazonensis MHOM/BR/76/LTB-012 amastigotes infected BALB/c mouse macrophages after 48 hrs by MTT assay; assay type: functional, organism-based; settings: MHOM/BR/76/LTB-012, 48 h
# [20] = system: Leishmania braziliensis; assay: Antileishmanial activity against Leishmania braziliensis MHOM/PE/PER006 promastigote infected BALB/c mouse macrophages after 48 hrs by Giemsa staining method; assay type: functional, organism-based; settings: MHOM/PE/PER006, 48 h
# [21] = system: Leishmania amazonensis; assay: as §1, with “week 7” for “week 4”; assay type: functional; design: scale not given: the % may be the effect or the level left
# [22] = system: Leishmania amazonensis; assay: Antileishmanial activity against Leishmania amazonensis LV79 MPRO/BR/72/M1841 amastigotes infected BALB/c mouse assessed as lesion diameter at 33 mg/kg/day, intralesionally administered after 1 week post infection 3 times per week for 6 weeks measured on week 4 relative to control; assay type: functional, organism-based
# [23] = system: Leishmania amazonensis; assay: as §1, with “at 33” for “at 5”, “week 7” for “week 4”; assay type: functional, organism-based; design: scale not given: the % may be the effect or the level left
# [24] = system: Leishmania amazonensis; assay: as §1, with “33” for “5”; assay type: functional, organism-based; design: scale not given: the % may be the effect or the level left
# [25] = system: Leishmania amazonensis; assay: Antileishmanial activity against Leishmania amazonensis LV79 MPRO/BR/72/M1841 amastigotes infected BALB/c mouse assessed as lesion diameter at 33 mg/kg/day, intralesionally administered after 1 week post infection 3 times per week for 6 weeks measured on week 7 relative to control; assay type: functional, organism-based
# [26] = as §2; settings: chlorocebus sabaeus, Vero cells
# [27] = system: Mycobacterium tuberculosis; assay: Antitubercular activity against Mycobacterium tuberculosis H37Rv ATCC 27294 after 7 days by low oxygen recovery assay; assay type: functional; settings: H37Rv ATCC 27294, 168 h
# [28] = Selectivity index, ratio of IC50 for african green monkey Vero cells to MIC for Mycobacterium tuberculosis H37Rv ATCC 27294 by microplate alamar blue assay; assay type: functional
# [29] = system: Trypanosoma cruzi; assay: Antitrypanosomal activity against Trypanosoma cruzi tulahuen C4 trypomastigotes infected mouse assessed as decrease in parasite replication at 20 mg/kg/day, ip on days 6 to 11 days post infection after 6 days; assay type: functional, organism-based
Compound,MIC [1] [µM],IC50 [2] [µM],GI50 [3] [µM],Activity [4] [%],GI50 [5] [µM],GI50 [6] [µM],Activity [7] [mm],IC50 [8] [µM],IC50 [9] [µM],IC50 [10] [µM],Ratio IC50 [11],GI50 [12] [µM],GI50 [13] [µM],IC50 [14] [µM],selectivity ratio [15],Activity [16] [mm],GI50 [17] [µM],GI50 [18] [µM],IC50 [19] [µM],IC50 [20] [µM],also measured
Clc1ccc(/C=N/Nc2ncnc3sc4c(c23)CCCC4)cc1,> 250,> 30,8.4,46,18.7,12.8,3.6,20.4,142,> 30,85.2,14.6,6.7,13.1,1.6,5.2,> 170,15.1,1.7,17.3,Activity [21]: 25%
MEGLUMINE ANTIMONATE,–,–,–,–,–,–,–,–,–,–,–,–,–,–,–,4.7,–,–,–,–,Activity [22]: 2.1 mm; Activity [23]: 100%; Activity [24]: 100%; Activity [25]: 2.2 mm
CO[C@H]1/C=C/O[C@@]2(C)Oc3c(C)c(O)c4c(O)c(c(/C=N/N5CCN(C)CC5)c(O)c4c3C2=O)NC(=O)/C(C)=C\C=C\[C@H](C)[C@H](O)[C@@H](C)[C@@H](O)[C@@H](C)[C@H](OC(C)=O)[C@@H]1C [RIFAMPIN],0.1,–,–,–,–,–,–,–,–,–,–,–,–,–,–,–,–,–,–,–,selectivity ratio at 72 h [26]: 1080; MIC [27]: < 1.9 µM; Ratio IC50 [28]: 1080
O=C(Cn1ccnc1[N+](=O)[O-])NCc1ccccc1,–,–,–,–,–,–,–,–,–,–,–,–,–,–,–,–,–,–,–,–,Activity [29]: Active
CCC(CC)=NNc1ncnc2sc3c(c12)CCCC3,160,7,15.1,65,4.8,15.2,2.8,20.8,162,10.9,8.5,15,11.6,20.7,1,4.9,20.6,38.9,19,11.1,Ratio IC50 [28]: 0.7; Activity [21]: 17%
C(=C\c1ccccc1)/C=N/Nc1ncnc2sc3c(c12)CCCC3,35,–,2.1,–,4.4,2.1,–,20.9,1.7,–,0.1,5.4,1.6,1.4,14.6,–,4.6,8.2,16.6,–,Activity [29]: inactive; Ratio IC50 [28]: 0.1
CCc1ccc(/C=N/Nc2ncnc3sc4c(c23)CCCC4)cc1,> 250,9.5,18.5,30,36.1,28.2,3,–,151,8.2,9.6,58.8,11.1,> 25,–,4.7,190,32.2,15.7,10.5,Activity [21]: 2%
